Results on 5 compounds are retold here after PubChem BioAssay AID1963873 (Molecular Pharmacology Branch, DTP, NCI, 2024).

The assay has as its system 276233-004-R-J1-PDC KRAS spheroids with HUVEC/MSC, viability. The experiment in a line: Anticancer human tumor 276233-004-R-J1-PDC patient-derived colon adenocarcinoma cell line growth inhibition [KRAS2]. The settings on record: for viability, T/C: stronger effect = lower value. The text has this: Multicellular complex tumor spheroid response to RAS pathway inhibitors in combination with a targeted agents in patient-derived cell lines with oncogenic KRAS variants from multiple cancer types
A high-throughput screen of multi-cell type tumor spheroids was designed to identify active combinations of targeted small molecules and KRAS pathway inhibitors. Complex spheroids include a stromal component modeled by human endothelial cells (HUVEC) and fibroblasts modeled by human mesenchymal stem cells (MSCs). The concentration ranges selected for each drug and investigational agent were based upon clinically achievable concentrations if the clinical Cmax of the agent was known.
Compounds. The drugs and investigational agents: BI-3406 (NSC825286), BAY-293 (NSC824723), batoprotafib (TNO155; NSC825523), sotorasib (AMG 510; NSC818433), MRTX1257 (NSC819558), elimusertib (BAY 1895344; NSC800525), molibresib (GSK525762; NSC774829), temuterkib (LY3214996; NSC803410), venetoclax (NSC766270), alisertib (NSC759677), olaparib (NSC753686), talazoparib (NSC767125), erdafitinib (NSC781556), ipatasertib (NSC767898), cabozantinib (NSC761068), nintedanib (NSC756659), abemaciclib (NSC768073), docetaxel (NSC628503), trametinib (NSC758246), and sapanisertib (NSC764658) were obtained from the National Cancer Institute (NCI) Developmental Therapeutics Program Chemical Repository. The FDA-approved anticancer drug set is available from the Developmental Therapeutics Program. […] The stock solutions were prepared in dimethyl sulfoxide (DMSO, Sigma-Aldrich, St. Louis, MO, cat. D2650) at 800-fold the tested concentration and stored at -70 degrees C prior to their use. All drugs and investigational agents were tested over a range starting from a high concentration at or near the clinical Cmax and decreasing in half-log increments. If the clinical Cmax for an agent had not been determined, the highest concentration tested was 10 microM.
Cell Culture. All cells were maintained in an incubator at 37 degrees C and 5% CO2 with 95% humidity. The PDC lines were cultured according to standard operating procedures established by the NCI PDMR (https://pdmr.cancer.gov/sops/default.htm). Briefly, all PDCs were thawed and cultured in Matrigel-coated flasks prepared with a working solution of 1X Ham's F-12 nutrient mix, without supplementation (Invitrogen, Waltham, MA, cat. 11765054), 100 U/mL penicillin-streptomycin (Invitrogen, cat. 15140122), and 2.5% Matrigel (Corning Inc., Corning, NY, cat. 354248) for the first three passages. All PDCs were cultured in complete DMEM/F-12 media containing advanced DMEM/F-12 (Invitrogen, cat. 12634028), 4.9% defined fetal bovine serum, heat inactivated (HyClone Laboratories Inc., Logan, UT, cat. SH30070.03HI), 389 ng/mL hydrocortisone (Sigma-Aldrich, cat. H4001), 9.7 ng/mL human EGF recombinant protein (Invitrogen, cat. PHG0313), 23.4 microg/mL adenine (Sigma-Aldrich, cat. A2786), 97.3 U/mL penicillin-streptomycin (Invitrogen, cat. 15140122), 1.9 mM L-glutamine (Invitrogen, cat. 25030081), and 9.7 microM Y-27632 dihydrochloride (Tocris Bioscience, Bristol, United Kingdom, cat. 1254). The PDCs were cultured in complete DMEM/F12 media without 9.7 microM Y-27632 dihydrochloride for at least two passages prior to the screen. The established cell line HOP-62 was cultured in RPMI 1640 medium, HEPES (Invitrogen, cat. 22400105) with 10% defined fetal bovine serum (HyClone Laboratories Inc., cat. SH30070.03) and 2 mM L-glutamine (Invitrogen, cat. 25030081). The pooled donor HUVEC were cultured in endothelial cell growth medium 2 (PromoCell, Heidelberg, Germany, cat. C-22011) and the hMSC were cultured in mesenchymal stem cell growth medium 2 (PromoCell, cat. C-28009). For all experiments, HUVEC and hMSC were used at passages </=5, while the malignant cell lines were used at passages </=15. […]

Where [1] appears, read: curve of first compound, second compound 0.1 µM.
Setting [2] is: curve of first compound, second compound 0.316 µM.
Where [3] appears, read: curve of first compound, second compound 1 µM.
[4] abbreviates: curve of first compound, second compound 3.16 µM.
Where [5] appears, read: second compound 0.1 µM, first compound 0.0316 µM.
The mark [6] stands for this setting: second compound 0.1 µM, first compound 0.1 µM.
Where [7] appears, read: second compound 0.1 µM, first compound 0.316 µM.
[8] abbreviates: second compound 0.1 µM, first compound 1 µM.
Where [9] appears, read: second compound 0.1 µM, first compound 3.16 µM.
Setting [10] is: second compound 0.1 µM, first compound 10 µM.
[11] abbreviates: second compound 0.316 µM, first compound 0.0316 µM.
The mark [12] stands for this setting: second compound 0.316 µM, first compound 0.1 µM.
Where [13] appears, read: second compound 0.316 µM, first compound 0.316 µM.
Where [14] appears, read: second compound 0.316 µM, first compound 1 µM.
Setting [15] is: second compound 0.316 µM, first compound 3.16 µM.
Setting [16] is: second compound 0.316 µM, first compound 10 µM.
The mark [17] stands for this setting: second compound 1 µM, first compound 0.0316 µM.
Where [18] appears, read: second compound 1 µM, first compound 0.1 µM.
Where [19] appears, read: second compound 1 µM, first compound 0.316 µM.
Where [20] appears, read: second compound 1 µM, first compound 1 µM.
Setting [21] is: second compound 1 µM, first compound 3.16 µM.
Setting [22] is: second compound 1 µM, first compound 10 µM.
[23] abbreviates: second compound 3.16 µM, first compound 0.0316 µM.
Setting [24] is: second compound 3.16 µM, first compound 0.1 µM.
Setting [25] is: second compound 3.16 µM, first compound 0.316 µM.
The mark [26] stands for this setting: second compound 3.16 µM, first compound 1 µM.
Where [27] appears, read: second compound 3.16 µM, first compound 3.16 µM.
[28] abbreviates: second compound 3.16 µM, first compound 10 µM.
The mark [29] stands for this setting: curve of first compound, second compound 0.0316 µM.
The mark [30] stands for this setting: second compound 0.0316 µM, first compound 0.0316 µM.
Where [31] appears, read: second compound 0.0316 µM, first compound 0.1 µM.
Setting [32] is: second compound 0.0316 µM, first compound 0.316 µM.
The mark [33] stands for this setting: second compound 0.0316 µM, first compound 1 µM.
Setting [34] is: second compound 0.0316 µM, first compound 3.16 µM.
Where [35] appears, read: second compound 0.0316 µM, first compound 10 µM.

For orientation: IC50 means the midpoint of a concentration-inhibition curve. For orientation: viability, T/C means the ratio of treated to control.
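Further: cells exposed to agents for seven days before viability read.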
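Wherever viability, T/C is given: 100% = DMSO vehicle control wells and lower values mean fewer viable cells.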

On to `CC1OCC2(CCN(c3cnc(Sc4ccnc(N)c4Cl)c(N)n3)CC2)C1N` (stereo not given) + COc1cc2nc(C)nc(NC(C)c3cc(N)cc(C(F)(F)F)c3)c2cc1OC1CCOC1, for which the IC50 was > 10 µM under setting [1]; > 10 µM under setting [2]; > 10 µM under setting [3]; 5.25 µM under setting [4]; 0.0411 µM (curve of first compound, second compound 10 µM). Further, the viability, T/C is, setting by setting: under setting [5], 93.6%; under setting [6], 100%; under setting [7], 70.5%; under setting [8], 78%; under setting [9], 62.9%; under setting [10], 51.7%. For the same compound, the viability, T/C under setting [11] was 109%; the viability, T/C under setting [12] is 79%; the viability, T/C under setting [13] is 78.5%; the viability, T/C under setting [14] is 62.7%; the viability, T/C under setting [15] is 61.8%; the viability, T/C under setting [16] was 57.2%. In addition, the viability, T/C by setting is: under setting [17], 91.5%; under setting [18], 86.9%; under setting [19], 81.4%; under setting [20], 80.4%; under setting [21], 55.1%; under setting [22], 50.8%. Further, the viability, T/C was 85.8% under setting [23]; 77.8% under setting [24]; 71.8% under setting [25]; 70% under setting [26]; 54% under setting [27]; 42.7% under setting [28]. The viability, T/C was 52.4% (second compound 10 µM, first compound 0.0316 µM); 44.1% (second compound 10 µM, first compound 0.1 µM); 34.4% (second compound 10 µM, first compound 0.316 µM); 33.9% (second compound 10 µM, first compound 1 µM); 24.2% (second compound 10 µM, first compound 3.16 µM); 18.7% (second compound 10 µM, first compound 10 µM).
Regarding `O=C(c1cc(Cc2n[nH]c(=O)c3ccccc23)ccc1F)N1CCN(C(=O)C2CC2)CC1`, the viability, T/C is, setting by setting: (compound 0.1 µM) 91.9% [middle of 5 runs]; (compound 0.316 µM) 84.4% [middle of 5 runs]; (compound 1 µM) 89.5% [middle of 5 runs]. Further, under “curve of compound”, the half-maximal inhibitory concentration (IC50) is > 10 µM.
For `COc1cc2nc(C)nc(NC(C)c3cc(N)cc(C(F)(F)F)c3)c2cc1OC1CCOC1` (stereo not given), the IC50 (compound alone, run of 07/26/2021) was 8.44 µM [middle of 6 runs].
For the compound `CC1OCC2(CCN(c3cnc(Sc4ccnc(N)c4Cl)c(N)n3)CC2)C1N` (stereo not given) + C=CC(=O)N1CCN(c2nc(OCC3CCCN3C)nc3c2CCN(c2cccc4cccc(C)c24)C3)CC1CC#N, the IC50 runs as follows: under setting [29], > 10 µM; under setting [1], > 10 µM; under setting [2], > 10 µM; under setting [3], 9.49 µM; under setting [4], 0.521 µM. The viability, T/C is 105% under setting [30]; 90.5% under setting [31]; 91.2% under setting [32]; 85.7% under setting [33]; 70.2% under setting [34]; 59.8% under setting [35]. Moreover, the viability, T/C is 98.2% under setting [5]; 85% under setting [6]; 81.5% under setting [7]; 69.3% under setting [8]; 68.7% under setting [9]; 56.3% under setting [10]. For the same compound, the viability, T/C runs as follows: under setting [11], 102%; under setting [12], 98.7%; under setting [13], 83.4%; under setting [14], 76.7%; under setting [15], 67%; under setting [16], 55.3%. The viability, T/C was 98.2% under setting [17]; 84.7% under setting [18]; 81.2% under setting [19]; 83.5% under setting [20]; 63.5% under setting [21]; 49% under setting [22]. The viability, T/C is, setting by setting: under setting [23], 69.1%; under setting [24], 60.4%; under setting [25], 58.2%; under setting [26], 39.7%; under setting [27], 35.9%; under setting [28], 39%.
Regarding `CC(C)NCC(C(=O)N1CCN(c2ncnc3c2C(C)CC3O)CC1)c1ccc(Cl)cc1` (stereo not given) + C=CC(=O)N1CCN(c2nc(OCC3CCCN3C)nc3c2CCN(c2cccc4cccc(C)c24)C3)CC1CC#N, the IC50 by setting is: under setting [29], > 10 µM; under setting [1], > 10 µM; under setting [2], > 10 µM; under setting [3], > 10 µM; under setting [4], < 0.0316 µM. The viability, T/C under setting [30] was 97.3%; the viability, T/C under setting [31] was 93.5%; the viability, T/C under setting [32] is 84.8%; the viability, T/C under setting [33] was 63.7%; the viability, T/C under setting [34] was 66.3%; the viability, T/C under setting [35] is 64.9%. In addition, the viability, T/C was 80.6% under setting [5]; 81.7% under setting [6]; 67.6% under setting [7]; 64.6% under setting [8]; 85.4% under setting [9]; 76.9% under setting [10]. For the same compound, the viability, T/C under setting [11] is 66.8%; the viability, T/C under setting [12] is 81.4%; the viability, T/C under setting [13] was 72.8%; the viability, T/C under setting [14] is 65.5%; the viability, T/C under setting [15] is 63.2%; the viability, T/C under setting [16] is 58.7%. The viability, T/C is 60.4% under setting [17]; 65.6% under setting [18]; 65% under setting [19]; 61.9% under setting [20]; 64.8% under setting [21]; 58.4% under setting [22]. Besides, the viability, T/C is 37.6% under setting [23]; 46.9% under setting [24]; 44% under setting [25]; 22% under setting [26]; 32% under setting [27]; 27.3% under setting [28].
